Source: the Deep4Chem optical property database
Several values for one entry are separate records, joined by “and”; a condition that tells them apart may be missing. Equal values may be shown once. Each block holds one compound with its values, some of them ahead of it.

Experiment: solvent given as SMILES

emission maximum (in O): 564 nm
SMILES: CC[n+]1nc2cc3c4c(c2c2cc(F)ccc21)CCCN4CCC3

emission maximum (in CC#N): 489 nm
SMILES: COc1ccc(-c2nc(-c3cc(Cl)sc3C)c(-c3cc(Cl)sc3C)[nH]2)cc1

emission maximum (in C1CCCCC1): 324 nm
SMILES: CCCC1(CCC)c2cc(C#N)ccc2-c2ccc(C#N)cc21

emission maximum (in CN(C)C=O): 665 nm | emission maximum (in ClCCl): 670 nm
SMILES: C1=Cc2nc1c(-c1cccs1)c1ccc([nH]1)c(-c1cccs1)c1nc(c(-c3cccs3)c3ccc([nH]3)c2-c2cccs2)C=C1

emission maximum (in ClCCl): 750 nm
SMILES: CCCCCCOc1cc(N(CC)CC)ccc1/C=C(\C#N)c1ccc(/C=C/C(=C(C#N)C#N)c2ccc(N(c3ccccc3)c3ccccc3)cc2)s1

emission maximum (in ClC(Cl)Cl): 415 nm
SMILES: COc1ccc2cc(C#N)c3ccc4ccccc4c3c2c1

emission maximum (in ClCCl): 442 nm
SMILES: CCOC(=O)c1c(-c2cc3c(ccc4ccccc43)oc2=O)nn(-c2cccc(Cl)c2)c1C(=O)OCC

emission maximum (in ClC(Cl)Cl): 425 nm
SMILES: CCCCCCc1sc(CCCCCC)c2c3ccsc3c3sccc3c12

emission maximum (in ClCCl): 425 nm
SMILES: CC(C)c1cccc(C(C)C)c1N1C(=O)c2cccc3c(Oc4ccccc4)ccc(c23)C1=O

emission maximum (in CC#N): 388 nm | emission maximum (in CCCCOCCCC): 389 nm | emission maximum (in CO): 387 nm
SMILES: CC(=O)Nc1cc2ccc3cccc4ccc(c1)c2c34

emission maximum (in CO): 663 nm | emission maximum (in ClC(Cl)Cl): 687 nm
SMILES: CCN1C(=CC2=C([O-])C(=Cc3sc4ccccc4[n+]3CC)C2=O)Sc2ccccc21

emission maximum (in CC1CCCO1): 487 nm
SMILES: COc1c(Br)c2cc(=O)oc3ccc4cccc1c4c32

emission maximum (in CS(C)=O): 424 nm
SMILES: COc1cc(-c2nc3sc4ccccc4c3s2)cc(OC)c1OC

emission maximum (in CCCCCC): 615 nm | emission maximum (in CCCCCCCCO): 621 nm | emission maximum (in CCOC(C)=O): 616 nm | emission maximum (in CN(C)C=O): 623 nm | emission maximum (in ClCCl): 628 nm
SMILES: CC1=CC(C)=[N+]2C1=Cc1c3ccccc3c(C#Cc3ccsc3)n1[B-]2(F)F

emission maximum (in CCO): 460 nm
SMILES: Cc1c(C)n2c(COC(=O)c3ccc(F)cc3)c(C)c(=O)n2c1=O

emission maximum (in CCO): 462 nm | emission maximum (in ClCCl): 460 nm
SMILES: CCN(CC)c1ccc2cc(C#N)/c(=N\C(C)=O)oc2c1

Second part, the compound before the results:

SMILES: Oc1ccc(C2=[N+]3C(=C(c4ccccc4)c4cccn4[B-]3(F)F)C=C2)cc1
emission maximum (in ClC(Cl)Cl): 564 nm

SMILES: CC(C)(C)c1ccc(C2=C(c3ccc(C(C)(C)C)cc3)C(c3ccc(C(C)(C)C)cc3)=[N+]3C2=C(c2ccccc2)c2c(-c4ccc(C(C)(C)C)cc4)c(-c4ccc(C(C)(C)C)cc4)c(-c4ccc(C(C)(C)C)cc4)n2[B-]3(F)F)cc1
emission maximum (in C1CCCCC1): 634 nm | emission maximum (in C1CCOC1): 637 nm | emission maximum (in CC#N): 629 nm | emission maximum (in Cc1ccccc1): 639 nm | emission maximum (in ClCCl): 636 nm

SMILES: CC(C)(C)c1cc(C#Cc2ccc3c(C#Cc4cc(C(C)(C)C)cc(C(C)(C)C)c4)cc4c5cc(C#Cc6cc(C(C)(C)C)cc(C(C)(C)C)c6)ccc5c(C#Cc5cc(C(C)(C)C)cc(C(C)(C)C)c5)cc4c3c2)cc(C(C)(C)C)c1
emission maximum (in ClCCl): 439 nm

SMILES: COc1cc2c(cc1-c1ccc(Cl)cc1)Cc1c3c(c4c(c1-2)-c1cc(OC)c(-c2ccc(Cl)cc2)cc1C4)C(=O)N(CCC(C)C)C3=O
emission maximum (in C1CCOC1): 466 nm

SMILES: Oc1ccccc1/C=N/c1ccccc1/N=C/c1ccccc1O
emission maximum (in CC#N): 545 nm and 458 nm

SMILES: Cc1cc2nc3c(=O)[nH]c(=O)n(C)c3nc2cc1C
emission maximum (in CC#N): 437 nm

SMILES: c1ccc2c(-c3ccc4sc5ccc(-c6c7ccccc7cc7ccccc67)cc5c4c3)c3ccccc3cc2c1
emission maximum (in C1CCCCC1): 399.14 nm | emission maximum (in CC#N): 402.78 nm | emission maximum (in ClCCl): 408.25 nm

SMILES: F[B-]1(F)N2C(=Nc3cccc4cccc2c34)c2cccc[n+]21
emission maximum (in CC#N): 413 nm | emission maximum (in CO): 383 nm | emission maximum (in CS(C)=O): 498 nm | emission maximum (in Cc1ccccc1): 384 nm

SMILES: C(=C\c1c2ccccc2cc2ccccc12)/c1c2ccccc2cc2ccccc12
emission maximum (in C1CCOC1): 650 nm

SMILES: CC[N+]1(CC)CN2C(=N1)C(C(=O)O)=Cc1cc(Cl)ccc12
emission maximum (in O): 472 nm

SMILES: O=c1oc2ccccc2c(O)c1C(CC(O)c1ccc(-c2ccc(Br)cc2)cc1)c1ccccc1 (configuration not stated)
emission maximum (in CC#N): 403 nm | emission maximum (in CCO): 392 nm | emission maximum (in CO): 394 nm | emission maximum (in O): 397 nm

SMILES: O=C(O)CCNc1cccc2ccccc12
emission maximum (in CCO): 417 nm

SMILES: Cc1c2ccncc2c(C)c2c1[nH]c1ccccc12
emission maximum (in C1CCCCC1): 392 nm | emission maximum (in C1CCOC1): 413 nm | emission maximum (in C1COCCO1): 410 nm | emission maximum (in CC#N): 420 nm | emission maximum (in CC(C)(C)O): 420 nm | emission maximum (in CC(C)O): 424 nm | emission maximum (in CCC(C)(C)O): 419 nm | emission maximum (in CCCCCC): 390 nm | emission maximum (in CCCCO): 427 nm | emission maximum (in CCO): 429 nm | emission maximum (in CCOC(C)=O): 410 nm | emission maximum (in CCOCC): 405 nm | emission maximum (in CN(C)C=O): 425 nm | emission maximum (in CO): 434 nm | emission maximum (in CS(C)=O): 428 nm | emission maximum (in Cc1ccccc1): 403 nm

SMILES: Fc1ccc2cc3cccc[n+]3cc2c1
emission maximum (in O): 408 nm

SMILES: CN(C)c1ccc(/C=C/C=C/c2ccc([N+](=O)[O-])c(O)c2)cc1
emission maximum (in C1CCCCC1): 530 nm | emission maximum (in C1CCOC1): 686 nm | emission maximum (in C1COCCO1): 634 nm | emission maximum (in CCCCCCC): 523 nm | emission maximum (in Cc1ccccc1): 609 nm

SMILES: CC1=CC(C)=[N+]2C1=C(c1ccc(N(C)C)cc1)c1c(C)cc(C)n1[B-]2(F)F
emission maximum (in C1CCOC1): 513 nm | emission maximum (in CC#N): 508 nm | emission maximum (in CC(=O)C(C)(C)C): 511 nm | emission maximum (in CC(C)=O): 510 nm | emission maximum (in CCCCCC): 511 nm | emission maximum (in CCOC(C)=O): 510 nm | emission maximum (in CO): 514 nm and 511 nm

SMILES: CC1(C)C(/C=C/C=C/C=C/C=C2/N(c3ccc(S(=O)(=O)[O-])cc3)c3ccc(S(=O)(=O)[O-])cc3C2(C)C)=[N+](c2ccc(S(=O)(=O)[O-])cc2)c2ccc(S(=O)(=O)[O-])cc21
emission maximum (in CO): 782 nm | emission maximum (in O): 779 nm

SMILES: Brc1cc2nc3cc4c5c(cccc5c3nc2cc1Br)C(c1ccccc1)=C(c1ccccc1)O4
emission maximum (in ClCCl): 580 nm

SMILES: c1ccc(Nc2nc(Nc3ccccc3)nc(Nc3ccc4cc5ccccc5cc4c3)n2)cc1
emission maximum (in C1COCCO1): 442 nm | emission maximum (in CC#N): 441 nm | emission maximum (in CCCCOCCCC): 441 nm | emission maximum (in CCOC(C)=O): 440 nm

SMILES: Cc1cc(C)c(B(c2cc(-c3ccc(C(C)(C)C)cc3)sc2-c2sc(-c3ccc(C(C)(C)C)cc3)cc2P(=O)(c2ccccc2)c2ccccc2)c2c(C)cc(C)cc2C)c(C)c1
emission maximum (in CO): 572 nm

SMILES: CCCCCCc1ccc2c3c(ccc2c1)O[B-](F)(F)[N+](c1cc([N+]2=Cc4c(ccc5cc(CCCCCC)ccc45)O[B-]2(F)F)cc([N+]2=Cc4c(ccc5cc(CCCCCC)ccc45)O[B-]2(F)F)c1)=C3
emission maximum (in C1CCOC1): 490 nm | emission maximum (in CC#N): 495 nm | emission maximum (in Cc1ccccc1): 493 nm | emission maximum (in ClCCl): 495 nm

SMILES: COc1ccc(-c2ccc(-c3ccc(C#N)cc3)cc2)cc1
emission maximum (in C1CCCCC1): 377 nm

SMILES: N#Cc1ccc(N(c2ccc(C#N)cc2)c2ccc3c4cccc5c(N(c6ccc(C#N)cc6)c6ccc(C#N)cc6)ccc(c6cccc2c63)c54)cc1
emission maximum (in C1CCCCC1): 494 nm | emission maximum (in C1CCOC1): 531 nm | emission maximum (in CC#N): 535 nm | emission maximum (in Cc1ccccc1): 513 nm | emission maximum (in ClCCl): 522 nm

SMILES: CC(C)(C)c1ccc2c(c1)c1cc(C(C)(C)C)ccc1n2-c1ccc(N(c2ccc(-c3ccc4c(c3)C(C)(C)c3cc(-c5ccc(N(c6ccc(-n7c8ccc(C(C)(C)C)cc8c8cc(C(C)(C)C)ccc87)cc6)c6ccc(-n7c8ccc(C(C)(C)C)cc8c8cc(C(C)(C)C)ccc87)cc6)cc5)ccc3-4)cc2)c2ccc(-n3c4ccc(C(C)(C)C)cc4c4cc(C(C)(C)C)ccc43)cc2)cc1
emission maximum (in ClCCl): 443 nm
